Data reported in PubChem BioAssay (NCI).
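Step 1: Grow cells in 96-well plates. Step 2: Expose to compound for 48 hours at 5 concentrations. Step 3: Interpolate endpoints linearly; if unreached, use highest concentration. Abbreviation: GI50, concentration required for 50% inhibition of growth. At the TGI there is no net growth.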

Key:
Assay in all cases: NCI anticancer screen, dose series, 48 h; in the data active = GI50 below about 0.43 µM; inactive = the rest
[1] = tested on: CCRF-CEM leukemia
[2] = tested on: U251 CNS
[3] = tested on: SW-620 colon
[4] = tested on: ACHN renal
[5] = tested on: HOP-62 NSCLC
[6] = tested on: SK-OV-3 ovarian
[7] = tested on: MDA-MB-435
[8] = tested on: NCI/ADR-RES ovarian
[9] = tested on: A549 NSCLC
[10] = tested on: OVCAR-3 ovarian
[11] = tested on: HT29 colon
[12] = tested on: MCF7 breast
[13] = tested on: NCI-H226 lung
[14] = tested on: HCC-2998 colon
[15] = tested on: DU-145 prostate
[16] = tested on: SF-539 CNS
[17] = tested on: RPMI-8226 leukemia
[18] = tested on: KM12 colon
[19] = tested on: NCI-H23 lung
[20] = tested on: UO-31 renal
[21] = tested on: SF-268 CNS
[22] = tested on: HCT-116 colon
[23] = tested on: PC-3 prostate
[24] = tested on: RXF 393 renal
[25] = tested on: SK-MEL-2 melanoma
[26] = tested on: IGROV1 ovarian
[27] = tested on: TK-10 renal
[28] = tested on: UACC-257 melanoma
[29] = tested on: MDA-MB-231 breast
[30] = tested on: SK-MEL-28 melanoma
[31] = tested on: A498 renal
[32] = tested on: LOX IMVI melanoma
[33] = tested on: 786-0 renal
[34] = tested on: SR leukemia
[35] = tested on: OVCAR-5 ovarian
[36] = tested on: OVCAR-8 ovarian
[37] = tested on: COLO 205 colon
[38] = tested on: T-47D breast
[39] = tested on: NCI-H522 lung
[40] = tested on: EKVX NSCLC
[41] = tested on: SK-MEL-5 melanoma
[42] = tested on: HCT-15 colon
[43] = tested on: HS 578T breast
[44] = tested on: MOLT-4 leukemia
[45] = tested on: SN12C renal
[46] = tested on: BT-549 breast
[47] = tested on: HOP-92 NSCLC
[48] = tested on: UACC-62 melanoma
[49] = tested on: SNB-75 CNS
[50] = tested on: NCI-H460 lung
[51] = tested on: M14 melanoma
[52] = tested on: OVCAR-4 ovarian
[53] = tested on: SNB-19 CNS
[54] = tested on: HL-60(TB) leukemia
[55] = tested on: K-562 leukemia
[56] = tested on: CAKI-1 renal

Cc1ccnc2c1NC(=O)c1cccnc1N2C1CC1
> 100 µM: TGI [1] | TGI [2] | TGI [3] | TGI [4] | TGI [5] | TGI [6] | TGI [7] | TGI [8] | TGI [9] | TGI [10] | TGI [11] | TGI [12] | TGI [13] | TGI [14] | TGI [15] | TGI [16] | TGI [17] | TGI [18] | TGI [19] | TGI [20] | TGI [21] | TGI [22] | TGI [23] | TGI [24] | TGI [25] | TGI [26] | TGI [27] | TGI [28] | TGI [29] | TGI [30] | TGI [31] | TGI [32] | TGI [33] | TGI [34] | TGI [35] | TGI [36] | TGI [37] | TGI [38] | TGI [39] | TGI [40] | TGI [41] | TGI [42] | TGI [43] | TGI [44] | TGI [45] | TGI [46] | TGI [47] | TGI [48] | TGI [49] | TGI [50] | TGI [51] | TGI [52] | TGI [53] | TGI [54] | TGI [55] | TGI [56]
inactive: GI50 [1] > 100 µM | GI50 [2] > 100 µM | GI50 [3] > 100 µM | GI50 [4] > 100 µM | GI50 [5] > 100 µM | GI50 [6] > 100 µM | GI50 [7] > 100 µM | GI50 [8] > 100 µM | GI50 [9] > 100 µM | GI50 [10] > 100 µM | GI50 [11] > 100 µM | GI50 [12] > 100 µM | GI50 [13] > 100 µM | GI50 [14] > 100 µM | GI50 [15] > 100 µM | GI50 [16] > 100 µM | GI50 [17] > 100 µM | GI50 [18] > 100 µM | GI50 [19] > 100 µM | GI50 [20] 48.7 µM | GI50 [21] > 100 µM | GI50 [22] > 100 µM | GI50 [23] > 100 µM | GI50 [24] > 100 µM | GI50 [25] > 100 µM | GI50 [26] > 100 µM | GI50 [27] > 100 µM | GI50 [28] > 100 µM | GI50 [29] > 100 µM | GI50 [30] > 100 µM | GI50 [31] > 100 µM | GI50 [32] > 100 µM | GI50 [33] > 100 µM | GI50 [34] > 100 µM | GI50 [35] > 100 µM | GI50 [36] > 100 µM | GI50 [37] > 100 µM | GI50 [38] > 100 µM | GI50 [39] > 100 µM | GI50 [40] > 100 µM | GI50 [41] > 100 µM | GI50 [42] > 100 µM | GI50 [43] > 100 µM | GI50 [44] > 100 µM | GI50 [45] > 100 µM | GI50 [46] > 100 µM | GI50 [47] > 100 µM | GI50 [48] > 100 µM | GI50 [49] 54.4 µM | GI50 [50] > 100 µM | GI50 [51] > 100 µM | GI50 [52] > 100 µM | GI50 [53] > 100 µM | GI50 [54] > 100 µM | GI50 [55] > 100 µM | GI50 [56] > 100 µM
